Experimental data as given in US12279855B2, “Highly-timed resolved myocardial blood-oxygen-level-dependent magnetic resonance imaging” (Cedars-Sinai Medical Center, priority 2018, dated 2025).
Entries after “also recorded” stand apart in the source; their conditions may differ. Read-outs that look alike come from different tables or passages of the source.

Assays:
[1] = extended vasodilatory state, cited from earlier work
[2] = tested on: Anesthetized dogs (intact; with chronic myocardial infarction), myocardium; assay: Beat-to-beat cardiac BOLD MRI at 3T before and after regadenoson injection; assay type: in vivo, dog
Experimental: FIG. 2A-FIG. 2F depicts in accordance with various embodiments of the invention, dynamics of BOLD response at rest and under the influence of regadenoson. BOLD response was relatively flat (fluctuated within +/−5%) throughout the measurement at rest (FIG. 2A), but peaks at 2-3 minutes after regadenoson injection to 10-15% and then plateaus after 4 minutes of injection (FIG. 2B). […] BOLD response was relatively flat in Remote and Affected territories at rest (FIG. 2D). However, under the influence of regadenoson (FIG. 2E), the BOLD response remained flat in Affected myocardium, while there was a delayed but rising BOLD response in Remote myocardium peaking at approximately 5 minutes was observed (FIG. 2E). The corresponding LGE image (with evidence of infarction) of the slice and where BOLD responses were measured are shown in FIG. 2F.
Methods. The proposed cardiac BOLD MRI approach was developed based on a LRT formalism (acquisition and reconstruction) that was previously used for ungated cardiac T1 mapping. It is composed of 3 parts: (i) adiabatic T2 preparation that is repeated at a fixed interval to ensure consistent T2 weighting; (ii) repeat acquisition of a set of central k-space lines with GRE readout every other TR to serve as respiratory and cardiac navigators for reconstruction; and (iii) interleaving of a set of golden-ratio radial GRE readout lines with the navigator lines serving as LRT training data. In brief, we modeled a high-dimensional cardiac image space (cardiac motion (Uc), respiratory motion (Ur), T1 recovery time (Ut), and time after excitation (Ut)) as a low-rank tensor that is partially separable. The complete tensors of all subspaces were recovered from the frequently sampled navigator signal using LRT completion. Subsequently cardiac and respiratory phased-resolved, beat-to-beat cardiac BOLD images were reconstructed. Anesthetized dogs (intact, n=2; and with chronic myocardial infarction, n=2) underwent continuous acquisition in a 3T MRI system (Siemens, Verio) that began 1-minute prior to regadenoson injection ([…]; duration of injection=30 sec) and ended 6 minutes after regadenoson injection. The data acquisition and reconstruction schemes are illustrated in FIG. 1. Sequence parameters were: scan time: 6 mins, delay between T2prep=800 ms; TE (T2prep time)=60 ms; GRE readout (TE/TR=1.4/3.3 ms, flip angle=12°, FOV=270×270 mm2, in-plane resolution: 1.7×1.7 mm2, 1 slice of thickness: 6 mm).
Results. […] LGE images show the region where the BOLD responses were measured. […] In animals with chronic MI (FIG. 2D, FIG. 2E and FIG. 2F), rest BOLD Response was also relatively stable in the infarcted and remote myocardium. However, following regadenoson injection, there was no response in the affected (infarcted) myocardium; but in the remote myocardium, a noticeably delayed hyperemic BOLD Response was observed (compared to intact animals), which peaked ˜5 minutes after regadenoson injection and plateaued to above 25%.

[3] = intact animal, healthy myocardium, regadenoson 2.5 mg/kg over 30 sec

SMILES	terminal half-life ([1]; literature references)	terminal half-life ([1]; range printed in mixed units (min to hours), literature reference)	BOLD response in Affected (infarcted) myocardium ([2]; animal with chronic MI, affected territory, regadenoson 2.5 mg/kg over 30 sec)	plateau of BOLD Response in Remote myocardium ([2]; animal with chronic MI, remote territory, regadenoson 2.5 mg/kg over 30 sec)	plateau of normalized BOLD Response [2, 3]	time after injection at which BOLD response plateaus [2, 3]	time over which BOLD response rises / peaks after regadenoson injection [2, 3]	BOLD response at peak after regadenoson injection ([2]; intact animal, healthy myocardium, regadenoson injection 2.5 mg/kg over 30 sec, normalized BOLD response)
Nc1nc(N/N=C/C2CCCCC2)nc2c1ncn2[C@@H]1O[C@H](CO)[C@@H](O)[C@H]1O [binodenoson]	10 to 120 min							
OCCN(CCO)c1nc(N2CCCCC2)c2nc(N(CCO)CCO)nc(N3CCCCC3)c2n1 [dipyridamole]		40 to 600 min						
CNC(=O)c1cnn(-c2nc(N)c3ncn([C@@H]4O[C@H](CO)[C@@H](O)[C@H]4O)c3n2)c1 [regadenoson]	33 to 108 min		remained flat; also recorded: no response	above 25%	more than 10%	4 min	2 to 3 min	10-15%
